Assay results published in US20110160306A1, “USE OF ALKANEDICARBOXYLIC ACIDS AND RETINOIDS FOR TREATMENT OF ROSACEA AND OTHER INFLAMMATORY SKIN DISEASES” (priority 2006, published 2011).

Tested on: irritative contact dermatitis induced on the ears of mice by croton oil
Test: Croton oil-induced irritative contact dermatitis on the mouse ear (ear weight, elastase and peroxidase in ear homogenate)
Assay type: in vivo
Conditions: for Edema formation Weight change in %: ear weight at 24 h, vs croton oil + vehicle; for Inhibition [%] of Skin infiltration of Granulocytes & Monocytes (Myelo-Peroxidase Activity) / Inhibition [%] of Skin infiltration of Neutrophils Elastase Activity: ear homogenate at 24 h
Text: To do this, an inflammatory reaction, i.e., irritative contact dermatitis, is induced on the ears of mice by means of croton oil, and the test substance is applied. This test is explained in more detail below within the framework of the examples. The induction of an inflammatory reaction (irritative contact dermatitis) is a proven model for pharmacological evaluation of the anti-inflammatory potential of topically or systemically administered test substances ([…] and Lowe (1985) Evaluation of Topical Nonsteroidal Anti-Inflammatory Agents, Models in Dermatology, H. Maibach and N.J. Lowe. Basel, Karger: 35-42). Croton oil is applied to the ears of mice to carry out the study; this leads to an acute, inflammatory reaction with edema and infiltration of primarily polymorphonuclear granulocytes that reaches its peak within 24 hours. Test substance can be applied here either preventively, i.e., before application of the inflammatory stimulus, or simultaneously with croton oil. […] The vehicle alone acted as the vehicle control. […] The animals were sacrificed 24 hours after the eczema was triggered, and the ear weight was determined as a measure of inflammation and edema formation. In addition, the elastase and peroxidase parameters were determined from the ear homogenate. The number of animals was basically n=10/group. Elastase is a largely neutrophil-specific enzyme and thus a measure of the number of infiltrated neutrophilic granulocytes. […] Peroxidase is expressed by all granulocytes, in addition also by monocytes. It is used for measuring the infiltrated granulocytes and monocytes. Like neutrophils, granulocytes and monocytes/macrophages are also involved in inflammatory processes of the skin and can be repeatedly detected in the infiltrate of the aforementioned diseases.

[1] = azelaic acid 10%, listed as azelaic acid
[2] = azelaic acid 20%, listed as azelaic acid
[3] = tretinoin 0.05%, listed as tretinoin

## O=C(O)CCCCCCCC(=O)O [Azelaic acid, azelaic acid]
Azelaic acid 10% topical with 1% croton oil
  Edema formation Weight change in %: −6%
Azelaic acid 10% topical with 1% croton oil, listed as azelaic acid
  Edema formation Weight change in %: no significant reduction of the edema
Azelaic acid 10%
  Inhibition [%] of Skin infiltration of Granulocytes & Monocytes (Myelo-Peroxidase Activity): −34%
  Inhibition [%] of Skin infiltration of Neutrophils Elastase Activity: −12%
[1]
  Inhibition [%] of Skin infiltration of Granulocytes & Monocytes (Myelo-Peroxidase Activity): could already be influenced
  Inhibition [%] of Skin infiltration of Neutrophils Elastase Activity: cannot be significantly influenced
Azelaic acid 15% topical with 1% croton oil
  Edema formation Weight change in %: 1%
Azelaic acid 15% topical with 1% croton oil, listed as azelaic acid
  Edema formation Weight change in %: even an increase
Azelaic acid 15%
  Inhibition [%] of Skin infiltration of Granulocytes & Monocytes (Myelo-Peroxidase Activity): −16%
  Inhibition [%] of Skin infiltration of Neutrophils Elastase Activity: −6%
Azelaic acid 15%, listed as azelaic acid
  Inhibition [%] of Skin infiltration of Neutrophils Elastase Activity: cannot be significantly influenced
Azelaic acid 20% topical with 1% croton oil
  Edema formation Weight change in %: −16%
Azelaic acid 20% topical with 1% croton oil, listed as azelaic acid
  Edema formation Weight change in %: no significant reduction of the edema
Azelaic acid 20%
  Inhibition [%] of Skin infiltration of Granulocytes & Monocytes (Myelo-Peroxidase Activity): −40%
  Inhibition [%] of Skin infiltration of Neutrophils Elastase Activity: −48%
[2]
  Inhibition [%] of Skin infiltration of Granulocytes & Monocytes (Myelo-Peroxidase Activity): could already be influenced
  Inhibition [%] of Skin infiltration of Neutrophils Elastase Activity: reduced

## CC1=C(/C=C/C(C)=C/C=C/C(C)=C/C(=O)O)C(C)(C)CCC1 [Tretinoin, tretinoin]
Tretinoin 0.05% topical with 1% croton oil
  Edema formation Weight change in %: −4%
Tretinoin 0.05% topical with 1% croton oil, listed as tretinoin
  Edema formation Weight change in %: does not lead to any significant reduction of edema
Tretinoin 0.05%
  Inhibition [%] of Skin infiltration of Granulocytes & Monocytes (Myelo-Peroxidase Activity): −3%
  Inhibition [%] of Skin infiltration of Neutrophils Elastase Activity: 2%
[3]
  Inhibition [%] of Skin infiltration of Granulocytes & Monocytes (Myelo-Peroxidase Activity): did not lead to a significant decrease of peroxidase concentration
  Inhibition [%] of Skin infiltration of Neutrophils Elastase Activity: did not lead to a decrease of the elastase concentration
